How the values were obtained:
F. graminearum = format: cell-based, Fusarium graminearum
[1] = system: Venturia inaequalis Strain EUB04; assay: In planta test on apple plantlets against apple scab; format: in vivo; conditions: reference fungicide mode, D9 to D21
Description: The in planta tests on apple plantlets were carried out according to the following protocol:
2 modes tested: spraying of extract D at 5 g/L 2 hours before inoculation (ExtractBefore) and spraying of extract D at 5 g/L 3 hours after inoculation (ExtractAfter)
3 control modes: • 2 untreated control modes (spraying of water on the same dates as the product) (WaterBefore and WaterAfter) • 1 mode with a reference fungicide (captan)
Artificial inoculation of plants with a Venturia inaequalis strain at 100 000 spores/ml.
Scab symptoms noted at 4 dates post-inoculation (visual estimate of % scab area)
Biological material: • Plantlets derived from roughly 3-week-old apple seedlings in soil balls—from pips taken from the Gala variety (apples harvested in an orchard planted with Gala and Elstar) • Venturia inaequalis spores on cellophane—Strain EUB04
3 boxes of 12 plantlets for each mode
D+9, D+14, D+17, D+21: Notation of percentage of leaf area affected (from 0 to 100% in 10% increments)
Since the normality and homogeneity conditions of the variances of the residues were not met, a non-parametric Kruskal-Wallis test was performed. This test being significant, the medians of the different modes were compared pairwise using the Nemenyi test based on Tukey's distance. These analyses were carried out with the R software (version 3.1.2).

SMILES	antifungal activity against F. graminearum (F. graminearum)	scab development [1]
C=C/C=C/CC/C=C/C=C/C=C/CC/C=C/[C@H](O)[C@H](O)[C@@H]1O[C@@H]([C@H](O)[C@H](O)C(=C)CC[C@@H](O)[C@H]2C[C@@H](O)[C@@H](O)[C@H]([C@@H](O)[C@H](O)/C=C(\C)CCC(O)CC(O)C(O)C(C)CC(O)C(O)CC(C)CCC(O)CC(=O)CC(O)CCCC(O)CCCCC(O)CO)O2)C[C@@H](O)[C@H]1O (some centres unmarked) [amphidinol 18]	has antifungal activity against F. graminearum	–
O=C1C2CC=CCC2C(=O)N1SC(Cl)(Cl)Cl (centres unmarked) [captan]	–	no scab development was observed

From US20190174768A1 (priority 2016, published 2019)
